{
  "source": "patent US20250312462A1",
  "about": "“PAK1 DEGRADERS AND METHODS OF USE THEREOF” (INSTITUTE FOR CANCER RESEARCH D/B/A THE RESEARCH INSTITUTE …, priority 2022, published 2025)",
  "experiment_in_all_cases": "KINOMEscan",
  "key": {"TAK1": {"molecular_target": "TAK1 (Homo sapiens, UniProt O43318)", "details": "read-out: Percent Control", "method": "(§1) The kinase engagement assay (KINOMEscan®) was performed by DiscoverX assessing binding abilities toward a set of kinases."}, "CDK5": {"molecular_target": "CDK5 (Homo sapiens, UniProt Q00535)", "details": "read-out: Percent Control", "method": "as §1"}, "GRK3": {"molecular_target": "GRK3 (Homo sapiens, UniProt P35626)", "details": "read-out: Percent Control", "method": "as §1"}, "NDR2": {"molecular_target": "NDR2 (Homo sapiens, UniProt Q9Y2H1)", "sequence (Q9Y2H1 whole entry)": "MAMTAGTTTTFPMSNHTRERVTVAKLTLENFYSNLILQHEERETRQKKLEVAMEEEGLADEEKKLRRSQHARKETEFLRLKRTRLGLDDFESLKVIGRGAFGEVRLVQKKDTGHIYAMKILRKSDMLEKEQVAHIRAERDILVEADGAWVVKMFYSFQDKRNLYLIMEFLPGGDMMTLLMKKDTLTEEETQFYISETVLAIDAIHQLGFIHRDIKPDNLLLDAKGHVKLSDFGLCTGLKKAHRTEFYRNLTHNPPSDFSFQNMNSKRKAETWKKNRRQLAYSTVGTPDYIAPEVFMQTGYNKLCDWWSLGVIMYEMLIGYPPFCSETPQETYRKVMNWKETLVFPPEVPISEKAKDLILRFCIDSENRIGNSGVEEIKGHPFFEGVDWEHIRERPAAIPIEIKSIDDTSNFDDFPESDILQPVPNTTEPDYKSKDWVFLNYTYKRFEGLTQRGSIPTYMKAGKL", "details": "read-out: Percent Control", "method": "as §1"}, "ADCK4": {"molecular_target": "ADCK4 (Homo sapiens, UniProt Q96D53)", "sequence (Q96D53 whole entry)": "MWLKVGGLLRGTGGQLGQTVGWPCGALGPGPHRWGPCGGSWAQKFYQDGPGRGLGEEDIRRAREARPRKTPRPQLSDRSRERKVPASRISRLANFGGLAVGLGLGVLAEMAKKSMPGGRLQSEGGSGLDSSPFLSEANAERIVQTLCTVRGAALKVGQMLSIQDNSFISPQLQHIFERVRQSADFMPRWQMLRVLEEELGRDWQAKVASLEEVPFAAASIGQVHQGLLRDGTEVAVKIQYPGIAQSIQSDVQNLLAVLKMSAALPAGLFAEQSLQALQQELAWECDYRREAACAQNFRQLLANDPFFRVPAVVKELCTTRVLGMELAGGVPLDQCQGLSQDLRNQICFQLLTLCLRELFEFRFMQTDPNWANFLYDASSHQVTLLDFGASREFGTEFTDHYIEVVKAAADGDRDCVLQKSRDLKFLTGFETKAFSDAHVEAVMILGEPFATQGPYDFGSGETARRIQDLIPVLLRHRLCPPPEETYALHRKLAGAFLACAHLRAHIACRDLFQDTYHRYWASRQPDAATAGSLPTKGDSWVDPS", "details": "read-out: Percent Control", "method": "as §1"}, "CAMK4": {"molecular_target": "CAMK4 (Homo sapiens, UniProt Q16566)", "details": "read-out: Percent Control", "method": "as §1"}, "[1]": {"molecular_target": "EGFR(L747-E749del, A750P) (Homo sapiens, UniProt P00533, A750P/DEL747-749)", "details": "read-out: Percent Control", "method": "as §1"}, "DDR2": {"molecular_target": "DDR2 (Homo sapiens, UniProt Q16832)", "details": "read-out: Percent Control", "method": "as §1"}, "ABL1-phosphorylated": {"molecular_target": "ABL1-phosphorylated (Homo sapiens, UniProt P00519)", "details": "read-out: Percent Control", "method": "as §1"}, "ALK": {"molecular_target": "ALK (Homo sapiens, UniProt Q9UM73)", "details": "read-out: Percent Control", "method": "as §1"}, "GSK3A": {"molecular_target": "GSK3A (Homo sapiens, UniProt P49840)", "sequence (P49840 whole entry)": "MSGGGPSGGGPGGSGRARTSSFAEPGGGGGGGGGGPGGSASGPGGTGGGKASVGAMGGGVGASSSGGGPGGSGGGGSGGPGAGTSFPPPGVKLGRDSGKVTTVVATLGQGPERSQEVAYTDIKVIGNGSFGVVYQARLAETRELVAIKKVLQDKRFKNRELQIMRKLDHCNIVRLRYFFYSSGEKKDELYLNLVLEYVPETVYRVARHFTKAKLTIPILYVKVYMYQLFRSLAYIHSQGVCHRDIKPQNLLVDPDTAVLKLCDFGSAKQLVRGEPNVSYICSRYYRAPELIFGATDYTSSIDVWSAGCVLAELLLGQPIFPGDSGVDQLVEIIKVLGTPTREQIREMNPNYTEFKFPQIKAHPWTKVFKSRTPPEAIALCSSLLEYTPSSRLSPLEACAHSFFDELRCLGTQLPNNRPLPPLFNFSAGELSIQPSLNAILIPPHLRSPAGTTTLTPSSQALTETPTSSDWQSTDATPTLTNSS", "details": "read-out: Percent Control", "method": "as §1"}, "LYN": {"molecular_target": "LYN (Homo sapiens, UniProt P07948)", "sequence (P07948 whole entry)": "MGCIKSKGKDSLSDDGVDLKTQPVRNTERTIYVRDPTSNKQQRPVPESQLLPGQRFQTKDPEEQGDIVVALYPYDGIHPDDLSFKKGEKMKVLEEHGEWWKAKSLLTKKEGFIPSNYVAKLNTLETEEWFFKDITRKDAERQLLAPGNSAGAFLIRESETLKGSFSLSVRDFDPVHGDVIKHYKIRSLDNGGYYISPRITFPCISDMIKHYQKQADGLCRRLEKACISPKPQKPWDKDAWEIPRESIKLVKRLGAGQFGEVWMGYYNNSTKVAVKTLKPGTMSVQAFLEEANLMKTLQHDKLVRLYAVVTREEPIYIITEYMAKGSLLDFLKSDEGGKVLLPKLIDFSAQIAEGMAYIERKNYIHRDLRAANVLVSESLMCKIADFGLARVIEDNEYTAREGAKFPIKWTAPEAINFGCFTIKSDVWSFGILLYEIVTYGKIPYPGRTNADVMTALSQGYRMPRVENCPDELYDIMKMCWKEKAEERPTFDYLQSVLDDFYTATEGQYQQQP", "details": "read-out: Percent Control", "method": "as §1"}, "RET(M918T)": {"molecular_target": "RET(M918T) (Homo sapiens, UniProt P07949, M918T)", "details": "read-out: Percent Control", "method": "as §1"}, "BRSK2": {"molecular_target": "BRSK2 (Homo sapiens, UniProt Q8IWQ3)", "sequence (Q8IWQ3 whole entry)": "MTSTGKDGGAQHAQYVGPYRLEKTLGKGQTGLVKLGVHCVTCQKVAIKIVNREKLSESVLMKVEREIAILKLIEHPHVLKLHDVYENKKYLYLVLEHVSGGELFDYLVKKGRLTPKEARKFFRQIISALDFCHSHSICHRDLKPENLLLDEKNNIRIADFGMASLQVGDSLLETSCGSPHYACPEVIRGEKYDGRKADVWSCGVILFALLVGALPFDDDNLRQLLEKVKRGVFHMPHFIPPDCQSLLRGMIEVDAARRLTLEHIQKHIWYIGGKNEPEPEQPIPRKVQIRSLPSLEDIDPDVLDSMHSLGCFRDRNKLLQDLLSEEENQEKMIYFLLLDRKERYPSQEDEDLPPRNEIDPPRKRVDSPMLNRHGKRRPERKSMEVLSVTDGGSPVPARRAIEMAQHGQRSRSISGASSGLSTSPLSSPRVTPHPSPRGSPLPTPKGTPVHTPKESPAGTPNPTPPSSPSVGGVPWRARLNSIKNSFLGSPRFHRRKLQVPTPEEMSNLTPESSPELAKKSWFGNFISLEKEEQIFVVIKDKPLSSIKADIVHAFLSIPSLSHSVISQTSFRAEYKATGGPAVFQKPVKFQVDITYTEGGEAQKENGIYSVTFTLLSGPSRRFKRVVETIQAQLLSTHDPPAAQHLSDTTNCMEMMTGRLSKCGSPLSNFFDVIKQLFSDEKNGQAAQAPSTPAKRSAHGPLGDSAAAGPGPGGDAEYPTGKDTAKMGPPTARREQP", "details": "read-out: Percent Control", "method": "as §1"}, "NLK": {"molecular_target": "NLK (Homo sapiens, UniProt Q9UBE8)", "sequence (Q9UBE8 whole entry)": "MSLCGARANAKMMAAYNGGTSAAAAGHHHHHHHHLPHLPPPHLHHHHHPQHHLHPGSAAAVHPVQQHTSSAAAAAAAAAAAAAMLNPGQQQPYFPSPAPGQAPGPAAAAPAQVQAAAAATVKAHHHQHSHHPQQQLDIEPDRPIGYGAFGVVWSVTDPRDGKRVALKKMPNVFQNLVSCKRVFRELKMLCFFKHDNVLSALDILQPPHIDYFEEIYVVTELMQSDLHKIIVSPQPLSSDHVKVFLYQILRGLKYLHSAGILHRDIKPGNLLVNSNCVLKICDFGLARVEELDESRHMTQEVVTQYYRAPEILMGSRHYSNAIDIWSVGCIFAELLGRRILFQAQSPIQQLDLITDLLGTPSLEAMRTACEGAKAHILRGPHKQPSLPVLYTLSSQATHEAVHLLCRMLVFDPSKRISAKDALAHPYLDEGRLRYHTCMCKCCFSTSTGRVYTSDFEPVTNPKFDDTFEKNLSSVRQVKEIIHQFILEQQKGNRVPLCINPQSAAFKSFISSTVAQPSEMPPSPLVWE", "details": "read-out: Percent Control", "method": "as §1"}, "MARK4": {"molecular_target": "MARK4 (Homo sapiens, UniProt Q96L34)", "details": "read-out: Percent Control", "method": "as §1"}, "NEK11": {"molecular_target": "NEK11 (Homo sapiens, UniProt Q8NG66)", "sequence (Q8NG66 whole entry)": "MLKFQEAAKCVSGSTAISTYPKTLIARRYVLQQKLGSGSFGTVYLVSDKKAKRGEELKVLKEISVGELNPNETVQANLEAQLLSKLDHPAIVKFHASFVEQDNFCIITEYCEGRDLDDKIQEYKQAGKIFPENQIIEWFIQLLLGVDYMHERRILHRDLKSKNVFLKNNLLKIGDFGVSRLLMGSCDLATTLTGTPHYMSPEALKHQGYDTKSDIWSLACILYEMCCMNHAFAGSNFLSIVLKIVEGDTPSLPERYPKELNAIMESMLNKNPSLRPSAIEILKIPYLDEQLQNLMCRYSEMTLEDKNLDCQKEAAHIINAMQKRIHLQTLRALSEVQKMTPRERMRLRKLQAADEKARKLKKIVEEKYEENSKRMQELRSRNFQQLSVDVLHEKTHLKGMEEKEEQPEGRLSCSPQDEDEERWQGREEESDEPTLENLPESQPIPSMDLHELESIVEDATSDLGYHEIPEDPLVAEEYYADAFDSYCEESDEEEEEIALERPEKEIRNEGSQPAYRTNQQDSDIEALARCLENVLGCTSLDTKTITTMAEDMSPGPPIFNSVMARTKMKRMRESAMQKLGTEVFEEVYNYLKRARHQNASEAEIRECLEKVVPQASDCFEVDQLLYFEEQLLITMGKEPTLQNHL", "details": "read-out: Percent Control", "method": "as §1"}, "KIT(A829P)": {"molecular_target": "KIT(A829P) (Homo sapiens, UniProt P10721, A829P)", "details": "read-out: Percent Control", "method": "as §1"}, "PIM1": {"molecular_target": "PIM1 (Homo sapiens, UniProt P11309)", "details": "read-out: Percent Control", "method": "as §1"}, "PCTK2": {"molecular_target": "PCTK2 (Homo sapiens, UniProt Q00537)", "details": "read-out: Percent Control", "method": "as §1"}, "LIMK1": {"molecular_target": "LIMK1 (Homo sapiens, UniProt P53667)", "details": "read-out: Percent Control", "method": "as §1"}, "TXK": {"molecular_target": "TXK (Homo sapiens, UniProt P42681)", "sequence (P42681 whole entry)": "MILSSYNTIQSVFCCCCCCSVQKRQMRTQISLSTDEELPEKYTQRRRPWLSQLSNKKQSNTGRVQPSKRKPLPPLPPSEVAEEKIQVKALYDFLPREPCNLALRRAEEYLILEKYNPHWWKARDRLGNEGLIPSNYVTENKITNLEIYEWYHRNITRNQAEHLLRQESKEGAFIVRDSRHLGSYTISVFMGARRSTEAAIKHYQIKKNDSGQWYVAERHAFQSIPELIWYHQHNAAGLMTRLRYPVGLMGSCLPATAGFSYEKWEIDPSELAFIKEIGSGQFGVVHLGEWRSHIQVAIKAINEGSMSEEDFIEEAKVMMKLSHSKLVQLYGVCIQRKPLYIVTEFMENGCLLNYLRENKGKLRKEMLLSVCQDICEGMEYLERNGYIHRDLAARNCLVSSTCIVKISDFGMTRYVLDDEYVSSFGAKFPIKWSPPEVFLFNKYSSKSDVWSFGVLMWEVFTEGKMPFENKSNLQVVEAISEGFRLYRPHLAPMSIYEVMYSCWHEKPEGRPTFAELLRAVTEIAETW", "details": "read-out: Percent Control", "method": "as §1"}, "PRKCD": {"molecular_target": "PRKCD (Homo sapiens, UniProt Q05655)", "details": "read-out: Percent Control", "method": "as §1"}, "CSNK1G1": {"molecular_target": "CSNK1G1 (Homo sapiens, UniProt Q9HCP0)", "sequence (Q9HCP0 whole entry)": "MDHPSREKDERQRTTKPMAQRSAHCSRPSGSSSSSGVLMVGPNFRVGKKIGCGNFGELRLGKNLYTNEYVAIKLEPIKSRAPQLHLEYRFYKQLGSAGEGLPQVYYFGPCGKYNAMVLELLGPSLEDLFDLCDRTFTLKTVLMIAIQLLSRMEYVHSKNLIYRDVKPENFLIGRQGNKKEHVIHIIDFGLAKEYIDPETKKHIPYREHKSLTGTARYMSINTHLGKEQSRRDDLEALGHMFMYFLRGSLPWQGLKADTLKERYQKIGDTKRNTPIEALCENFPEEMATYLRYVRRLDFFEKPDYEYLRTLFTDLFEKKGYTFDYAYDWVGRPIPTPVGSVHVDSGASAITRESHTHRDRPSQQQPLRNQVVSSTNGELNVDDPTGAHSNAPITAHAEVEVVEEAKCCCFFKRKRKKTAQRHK", "details": "read-out: Percent Control", "method": "as §1"}, "STK35": {"molecular_target": "STK35 (Homo sapiens, UniProt Q8TDR2)", "details": "read-out: Percent Control", "method": "as §1"}, "MLCK": {"molecular_target": "MLCK (Homo sapiens, UniProt Q32MK0)", "details": "read-out: Percent Control", "method": "as §1"}, "PFTAIRE2": {"molecular_target": "PFTAIRE2 (Homo sapiens, UniProt Q96Q40)", "details": "read-out: Percent Control", "method": "as §1"}, "[2]": {"molecular_target": "ABL1(T315I)-nonphosphorylated (Homo sapiens, UniProt P00519, T315I)", "details": "read-out: Percent Control", "method": "as §1"}, "LZK": {"molecular_target": "LZK (Homo sapiens, UniProt O43283)", "details": "read-out: Percent Control", "method": "as §1"}, "ULK1": {"molecular_target": "ULK1 (Homo sapiens, UniProt O75385)", "details": "read-out: Percent Control", "method": "as §1"}, "RIPK5": {"molecular_target": "RIPK5 (Homo sapiens, UniProt Q6XUX3)", "details": "read-out: Percent Control", "method": "as §1"}, "FLT3(ITD, F691L)": {"system": "FLT3(ITD, F691L)", "details": "10 μM", "method": "as §1"}, "[3]": {"molecular_target": "ABL1(M351T)-phosphorylated (Homo sapiens, UniProt P00519, M351T)", "details": "read-out: Percent Control", "method": "as §1"}, "HIPK4": {"molecular_target": "HIPK4 (Homo sapiens, UniProt Q8NE63)", "details": "read-out: Percent Control", "method": "as §1"}, "AURKB": {"molecular_target": "AURKB (Homo sapiens, UniProt Q96GD4)", "details": "read-out: Percent Control", "method": "as §1"}, "KIT(L576P)": {"molecular_target": "KIT(L576P) (Homo sapiens, UniProt P10721, L576P)", "details": "read-out: Percent Control", "method": "as §1"}, "FGFR2": {"molecular_target": "FGFR2 (Homo sapiens, UniProt P21802)", "details": "read-out: Percent Control", "method": "as §1"}, "IGF1R": {"molecular_target": "IGF1R (Homo sapiens, UniProt P08069)", "details": "read-out: Percent Control", "method": "as §1"}},
  "data": [
    {"smiles": "O=C1CCC(N2C(=O)c3cccc(NCCCCCCCCNC(=O)N4CC[C@H](NC5=Nc6cc(F)ccc6N(CC(F)F)c6ccc(Cl)cc65)C4)c3C2=O)C(=O)N1", "note": "(stereo partly drawn) [BJG-05-039, (3S)-3-((2-Chloro-5-(2,2-difluoroethyl)-8-fluoro-5H-dibenzo[b,e][1,4]diazepin-11-yl)amino)-N-(8-((2-(2,6-dioxopiperidin-3-yl)-1,3-dioxoisoindolin-4-yl)amino)octyl)pyrrolidine-1-carboxamide]", "values": [
      {"measurement": "remaining binding at 10 µM", "setting": "TAK1", "result": 100, "unit": "%"},
      {"measurement": "remaining binding at 10 µM", "setting": "CDK5", "result": 90, "unit": "%"},
      {"measurement": "remaining binding at 10 µM", "setting": "GRK3", "result": 92, "unit": "%"},
      {"measurement": "remaining binding at 10 µM", "setting": "NDR2", "result": 45, "unit": "%"},
      {"measurement": "remaining binding at 10 µM", "setting": "ADCK4", "result": 63, "unit": "%"},
      {"measurement": "remaining binding at 10 µM", "setting": "CAMK4", "result": 74, "unit": "%"},
      {"measurement": "remaining binding at 10 µM", "setting": "[1]", "result": 78, "unit": "%"},
      {"measurement": "remaining binding at 10 µM", "setting": "DDR2", "result": 86, "unit": "%"},
      {"measurement": "remaining binding at 10 µM", "setting": "ABL1-phosphorylated", "result": 100, "unit": "%"},
      {"measurement": "remaining binding at 10 µM", "setting": "ALK", "result": 97, "unit": "%"},
      {"measurement": "remaining binding at 10 µM", "setting": "GSK3A", "result": 50, "unit": "%"},
      {"measurement": "remaining binding at 10 µM", "setting": "LYN", "result": 79, "unit": "%"},
      {"measurement": "remaining binding at 10 µM", "setting": "RET(M918T)", "result": 90, "unit": "%"},
      {"measurement": "remaining binding at 10 µM", "setting": "BRSK2", "result": 99, "unit": "%"},
      {"measurement": "remaining binding at 10 µM", "setting": "NLK", "result": 53, "unit": "%"},
      {"measurement": "remaining binding at 10 µM", "setting": "MARK4", "result": 100, "unit": "%"},
      {"measurement": "remaining binding at 10 µM", "setting": "NEK11", "result": 100, "unit": "%"},
      {"measurement": "remaining binding at 10 µM", "setting": "KIT(A829P)", "result": 92, "unit": "%"},
      {"measurement": "remaining binding at 10 µM", "setting": "PIM1", "result": 75, "unit": "%"},
      {"measurement": "remaining binding at 10 µM", "setting": "PCTK2", "result": 58, "unit": "%"},
      {"measurement": "remaining binding at 10 µM", "setting": "LIMK1", "result": 94, "unit": "%"},
      {"measurement": "remaining binding at 10 µM", "setting": "TXK", "result": 90, "unit": "%"},
      {"measurement": "remaining binding at 10 µM", "setting": "PRKCD", "result": 97, "unit": "%"},
      {"measurement": "remaining binding at 10 µM", "setting": "CSNK1G1", "result": 52, "unit": "%"},
      {"measurement": "remaining binding at 10 µM", "setting": "STK35", "result": 83, "unit": "%"},
      {"measurement": "remaining binding at 10 µM", "setting": "MLCK", "result": 66, "unit": "%"},
      {"measurement": "remaining binding at 10 µM", "setting": "PFTAIRE2", "result": 78, "unit": "%"},
      {"measurement": "remaining binding at 10 µM", "setting": "[2]", "result": 86, "unit": "%"},
      {"measurement": "remaining binding at 10 µM", "setting": "LZK", "result": 82, "unit": "%"},
      {"measurement": "remaining binding at 10 µM", "setting": "ULK1", "result": 78, "unit": "%"},
      {"measurement": "remaining binding at 10 µM", "setting": "RIPK5", "result": 87, "unit": "%"},
      {"measurement": "Percent Control", "setting": "FLT3(ITD, F691L)", "result": 94},
      {"measurement": "remaining binding at 10 µM", "setting": "[3]", "result": 100, "unit": "%"},
      {"measurement": "remaining binding at 10 µM", "setting": "HIPK4", "result": 67, "unit": "%"},
      {"measurement": "remaining binding at 10 µM", "setting": "AURKB", "result": 93, "unit": "%"},
      {"measurement": "remaining binding at 10 µM", "setting": "KIT(L576P)", "result": 84, "unit": "%"},
      {"measurement": "remaining binding at 10 µM", "setting": "FGFR2", "result": 77, "unit": "%"},
      {"measurement": "remaining binding at 10 µM", "setting": "IGF1R", "result": 70, "unit": "%"}
    ]}
  ]
}
